SMILES strings stand for the structures.

Common to all, as to format: in vivo
Test [1] deals with ryegrass, Italian (Italian ryegrass, Lolium multiflorum). Put plainly: Test A preemergence. To be noted: Lolium multiflorum, pre-emergence, 240 h. The method, boiled down:
(§1)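 Visual injury, scored on a 0–100 scale relative to untreated controls, was recorded about 10 d after application. Treatments were a preemergence soil spray over planted seeds or a postemergence spray on plants at the one- to two-leaf stage, 2 to 10 cm tall, all in loam soil–sand blend in the greenhouse.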

In test [2] the test system is Kochia (Kochia scoparia). Put plainly: Test A preemergence. To be noted: Bassia scoparia, pre-emergence, 240 h. The method, boiled down: as §1
The test system of test [3] is barnyardgrass (Echinochloa crus-galli). The experiment in a line: Test A preemergence. Particulars: Echinochloa crus-galli, pre-emergence, 240 h. The method, boiled down:
as §1

In test [4] the test system is giant foxtail (Setaria faberii). The experiment in a line: Test A preemergence. To be noted: Setaria faberi, pre-emergence, 240 h. The method, boiled down:
as §1

The test system of test [5] is ragweed (common ragweed, Ambrosia elatior). Put plainly: Test A preemergence. To be noted: Ambrosia artemisiifolia, pre-emergence, 240 h. The method, boiled down: as §1
For test [6], the system named is pigweed (Amaranthus retroflexus). The experiment in a line: Test A preemergence. Particulars: Amaranthus retroflexus, pre-emergence, 240 h.
Test [7] relates to sedge, umbrella (small-flower umbrella sedge, Cyperus difformis). The experiment in a line: Test B flooded paddy test. Particulars: Cyperus difformis, Flood, 250 g ai/ha; scale of 0 to 100 where 0 is no effect and 100 is complete control; read-out: Sedge, Umbrella plant response rating. The method, boiled down:
(§2)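 Response scored visually against untreated controls, 0 = no effect and 100 = complete control, 13–15 d after treatment in the greenhouse. Compounds added to paddy water held 3 cm above soil surface. Treatment given at 2-leaf stage.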

Test [8] concerns barnyardgrass (Echinochloa crus-galli). The experiment in a line: Test B flooded paddy test. To be noted: Echinochloa crus-galli, Flood, 250 g ai/ha; scale of 0 to 100 where 0 is no effect and 100 is complete control; read-out: Barnyardgrass plant response rating. The method, boiled down: as §2
For test [9], the system named is ducksalad (Heteranthera limosa). Put plainly: Test B flooded paddy test. Particulars: Heteranthera limosa, Flood, 250 g ai/ha; scale of 0 to 100 where 0 is no effect and 100 is complete control; read-out: Ducksalad plant response rating. The method, boiled down:
as §2

For test [10], the system named is rice (Oryra sativa). Put plainly: Test B flooded paddy test. Particulars: Oryza sativa, Flood, 250 g ai/ha; scale of 0 to 100 where 0 is no effect and 100 is complete control; read-out: Rice plant response rating. The method, boiled down:
as §2

Test [11] deals with Galium (catchweed bedstraw, Galium aparine). Put plainly: Test A postemergence. Particulars: Galium, post-emergence, 240 h, 125 g ai/ha, Postemergence; visual injury after approximately 10 d; 0 to 100 scale where 0 is no effect and 100 is complete control; read-out: Plant response rating, Galium. The method, boiled down: as §1
Test [12] relates to barnyardgrass (Echinochloa crus-galli). The experiment in a line: Test A postemergence. Particulars: Echinochloa crus-galli, post-emergence, 240 h, 125 g ai/ha, Postemergence; visual injury after approximately 10 d; 0 to 100 scale where 0 is no effect and 100 is complete control; read-out: Plant response rating, Barnyardgrass. The method, boiled down:
as §1

In test [13] the test system is corn (Zea mays). Put plainly: Test A postemergence. Particulars: Zea mays, post-emergence, 240 h, 125 g ai/ha, Postemergence; visual injury after approximately 10 d; 0 to 100 scale where 0 is no effect and 100 is complete control. The method, boiled down:
as §1

For test [14], the system named is ragweed (common ragweed, Ambrosia elatior). Put plainly: Test A postemergence. Particulars: Ambrosia artemisiifolia, post-emergence, 240 h, 125 g ai/ha, Postemergence; visual injury after approximately 10 d; 0 to 100 scale where 0 is no effect and 100 is complete control; read-out: Plant response rating, Ragweed. The method, boiled down:
as §1

Regarding `O=C1NC[C@H](c2cc(C(F)(F)F)ccn2)[C@H]1C(=O)Nc1ccccc1F` [Compound 948], the pest or weed control at 125 g/ha is 0% in [1] (125 g ai/ha, Preemergence, visual injury rating after approximately 10 d, read-out: Ryegrass, Italian plant response rating (0 to 100 scale, 0 is no effect, 100 is complete control)); 0% in [2] (125 g ai/ha, Preemergence, visual injury rating after approximately 10 d, read-out: Kochia plant response rating (0 to 100 scale, 0 is no effect, 100 is complete control)); 70% in test [3] (125 g ai/ha, Preemergence, visual injury rating after approximately 10 d, read-out: Barnyardgrass plant response rating (0 to 100 scale, 0 is no effect, 100 is complete control)); 70% in test [4] (125 g ai/ha, Preemergence, visual injury rating after approximately 10 d, read-out: Foxtail, Giant plant response rating (0 to 100 scale, 0 is no effect, 100 is complete control)); 0% in test [5] (125 g ai/ha, Preemergence, visual injury rating after approximately 10 d, read-out: Ragweed plant response rating (0 to 100 scale, 0 is no effect, 100 is complete control)); 0% in [6] (125 g ai/ha, Preemergence, visual injury rating after approximately 10 d, read-out: Pigweed plant response rating (0 to 100 scale, 0 is no effect, 100 is complete control)). Besides, the pest or weed control at 125 g/ha in test [11] was determined as 0%; in test [12] it was 70%; in test [14], 0%. Besides, the pest or weed control at 500 g/ha in test [1] (500 g ai/ha, preemergence, visual injury rating about 10 d after treatment, 0 to 100 scale (0 no effect, 100 complete control), read-out: Ryegrass, Italian plant response rating) turned out to be 0%; in test [2] (500 g ai/ha, preemergence, visual injury rating about 10 d after treatment, 0 to 100 scale (0 no effect, 100 complete control), read-out: Kochia plant response rating), 0%; in test [3] (500 g ai/ha, preemergence, visual injury rating about 10 d after treatment, 0 to 100 scale (0 no effect, 100 complete control), read-out: Barnyardgrass plant response rating), 90%; in test [4] (500 g ai/ha, preemergence, visual injury rating about 10 d after treatment, 0 to 100 scale (0 no effect, 100 complete control), read-out: Foxtail, Giant plant response rating), 90%; in test [5] (500 g ai/ha, preemergence, visual injury rating about 10 d after treatment, 0 to 100 scale (0 no effect, 100 complete control), read-out: Ragweed plant response rating) it was 0%; in test [6] (500 g ai/ha, preemergence, visual injury rating about 10 d after treatment, 0 to 100 scale (0 no effect, 100 complete control), read-out: Pigweed plant response rating), 0%. For the same compound, the pest or weed control at 250 g/ha in [7], in test [8], in test [9] and in test [10] was 0% throughout. Besides, the Corn plant response rating (crop injury, 0 = no effect, 100 = complete kill) at 125 g/ha in [13] was found to be 0%.

These data come from US12077503B2, “Substituted cyclic amides and their use as herbicides” (FMC CORPORATION, priority 2015, dated 2024).
